Test results taken from US20250197420A1, “MACROCYCLIC COMPOUNDS, COMPOSITIONS, AND METHODS OF USING THEREOF” (Sionna Therapeutics Inc., priority 2022, published 2025).

Legend:
[1] = target: T1, Purified recombinant NBD1 (Homo sapiens, UniProt P13569); assay: Aggregation analysis using differential static light scattering (DSLS): thermal stability of NBD1; type: binding; settings: NBD1 0.2 mg/ml; Tagg of compound well minus average Tagg of DMSO control wells
T1 construct: Purified recombinant NBD1 was produced using previously described methods; made in house
Procedure, shortened: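 Recombinant NBD1 at 0.2 mg/ml in Tris/NaCl/MgCl2 buffer with 2 mM ATP, 2 mM DTT, 1% glycerol, pH 7.6, was incubated with compound and heated at 1 °C/min to 70 °C while static light scattering was monitored. Tagg was taken from the curve inflection point and reported as ΔTagg relative to DMSO controls.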

[2] = test system: Primary human bronchial epithelial cells from a ΔF508 homozygous CF donor (CF-HBE cells); assay: TECC24 recording of CFTR-mediated transepithelial chloride transport, AUC fold over benchmark VX-809 @10 μM; type: cell-based; settings: 48 hours incubation, AUC of forskolin-stimulated IEQ
Procedure, shortened: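 CF-HBE cells on inserts were treated with compound for 48 h at 36.5 °C, then recorded in current-clamp with benzamil 10 μM, forskolin 10 μM, and finally CFTR inhibitor-172 20 μM in pH 7.4 Hepes saline. Equivalent Cl− current AUC between forskolin and inhibitor addition is expressed as a ratio to VX-809 AUC: A <3, B 3–6, C 6–20.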

T1 sequence (P13569 423-646 limits assumed): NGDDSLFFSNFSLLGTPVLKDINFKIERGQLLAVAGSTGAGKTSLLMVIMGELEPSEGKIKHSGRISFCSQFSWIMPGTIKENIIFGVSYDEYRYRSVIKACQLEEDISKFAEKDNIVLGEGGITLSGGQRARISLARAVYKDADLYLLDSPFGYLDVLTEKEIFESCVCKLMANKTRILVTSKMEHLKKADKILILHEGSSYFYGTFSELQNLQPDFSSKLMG

Row | SMILES | DSLS (ΔTagg) [1] | TECC (test agent AUC divided by VX-809 AUC) [2]
1 | [2H]C([2H])([2H])n1nc2nc1-c1cc(ccc1F)Oc1c(F)cc3[nH]ccc3c1CCC(=O)N(C)CC(C)(C)CCCC2(C)c1cccc(CCC(=O)NS(C)(=O)=O)c1 (single isomer, unassigned) [Compound 79A, 3-[3-[23,29-difluoro-6,10,10,12-tetramethyl-13-oxo-3-(trideuteriomethyl)-25-oxa-3,4,12,20,31-pentazapentacyclo[24.3.1.12,5.016,24.017,21]hentriaconta-1(30),2(31),4,16,18,21,23,26,28-nonaen-6-yl]phenyl]-N-methylsulfonyl-propanamide] | A (an ΔTagg value less than or equal to 5 °C is marked “A”) | A (a TECC value less than 3 is marked “A”)
2 | [2H]C([2H])([2H])n1nc2nc1-c1cc(ccc1F)Oc1c(F)cc3[nH]ccc3c1CCC(=O)N(C)CC(C)(C)CCCC2(C)c1cccc(CCC(=O)NS(C)(=O)=O)c1 (single isomer, unassigned) [Compound 79B, 3-[3-[23,29-difluoro-6,10,10,12-tetramethyl-13-oxo-3-(trideuteriomethyl)-25-oxa-3,4,12,20,31-pentazapentacyclo[24.3.1.12,5.016,24.017,21]hentriaconta-1(30),2(31),4,16,18,21,23,26,28-nonaen-6-yl]phenyl]-N-methylsulfonyl-propanamide] | C (a value greater than 10 °C and less than or equal to 25 °C is marked “C”) | C (a value between 6 and 20 is marked “C”)
3 | CC1(C)CCCCC(C)(c2cccc(CCC(=O)O)c2)c2cnc([nH]2)-c2cc(ccc2F)Oc2c(F)cc3[nH]ccc3c2COC(=O)N1 (single isomer, unassigned) [Compound 93A, 3-[3-(23,29-difluoro-6,11,11-trimethyl-13-oxo-14,25-dioxa-3,12,20,31-tetrazapentacyclo[24.3.1.12,5.016,24.017,21]hentriaconta-1(30),2,4,16,18,21,23,26,28-nonaen-6-yl)phenyl]propanoic acid] | A (an ΔTagg value less than or equal to 5 °C is marked “A”) | B (a value between 3 and 6 is marked “B”)
4 | CC1(C)CCCCC(C)(c2cccc(CCC(=O)O)c2)c2cnc([nH]2)-c2cc(ccc2F)Oc2c(F)cc3[nH]ccc3c2COC(=O)N1 (single isomer, unassigned) [Compound 93B, 3-[3-(23,29-difluoro-6,11,11-trimethyl-13-oxo-14,25-dioxa-3,12,20,31-tetrazapentacyclo[24.3.1.12,5.016,24.017,21]hentriaconta-1(30),2,4,16,18,21,23,26,28-nonaen-6-yl)phenyl]propanoic acid] | C (a value greater than 10 °C and less than or equal to 25 °C is marked “C”) | A (a TECC value less than 3 is marked “A”)
5 | CC1(C)CCCC(c2cccc(CCC(=O)O)c2)n2ccc(n2)-c2cc(ccc2F)Oc2c(F)cc3[nH]ccc3c2CCOC(=O)N1 (single isomer, unassigned) [Compound 95A, 3-[3-(23,29-difluoro-10,10-dimethyl-12-oxo-13,25-dioxa-5,11,20,31-tetrazapentacyclo-[24.3.1.12,5.016,24.017,21]hentriaconta-1(30),2(31),3,16(24),17(21),18,22,26,28-nonaen-6-yl)phenyl]propanoic acid] | B (a value above 5 °C and less than or equal to 10 °C is marked “B”) | B (a value between 3 and 6 is marked “B”)
6 | CC1(C)CCCC(c2cccc(CCC(=O)O)c2)n2ccc(n2)-c2cc(ccc2F)Oc2c(F)cc3[nH]ccc3c2CCOC(=O)N1 (single isomer, unassigned) [Compound 95B, 3-[3-(23,29-difluoro-10,10-dimethyl-12-oxo-13,25-dioxa-5,11,20,31-tetrazapentacyclo-[24.3.1.12,5.016,24.017,21]hentriaconta-1(30),2(31),3,16(24),17(21),18,22,26,28-nonaen-6-yl)phenyl]propanoic acid] | B (a value above 5 °C and less than or equal to 10 °C is marked “B”) | B (a value between 3 and 6 is marked “B”)
7 | CC1(C)CCOCC(c2cccc(CCC(=O)O)c2)n2ccc(n2)-c2cc(ccc2F)Oc2c(F)cc3[nH]ccc3c2COC(=O)N1 (single isomer, unassigned) [Compound 96A, 3-[3-(23,29-difluoro-11,11-dimethyl-13-oxo-8,14,25-trioxa-5,12,20,31-tetrazapentacyclo[24.3.1.12,5.016,24.017,21]hentriaconta-1(30),2(31),3,16,18,21,23,26,28-nonaen-6-yl)phenyl]propanoic acid] | C (a value greater than 10 °C and less than or equal to 25 °C is marked “C”) | B (a value between 3 and 6 is marked “B”)
8 | CC1(C)CCOCC(c2cccc(CCC(=O)O)c2)n2ccc(n2)-c2cc(ccc2F)Oc2c(F)cc3[nH]ccc3c2COC(=O)N1 (single isomer, unassigned) [Compound 96B, 3-[3-(23,29-difluoro-11,11-dimethyl-13-oxo-8,14,25-trioxa-5,12,20,31-tetrazapentacyclo[24.3.1.12,5.016,24.017,21]hentriaconta-1(30),2(31),3,16,18,21,23,26,28-nonaen-6-yl)phenyl]propanoic acid] | C (a value greater than 10 °C and less than or equal to 25 °C is marked “C”) | C (a value between 6 and 20 is marked “C”)
9 | Cn1nc2nc1-c1cc(ccc1F)Oc1c(F)cc3[nH]ccc3c1COC(=O)NC(C)(C)CCCCC2c1cccc(CCC(=O)O)c1 (single isomer, unassigned) [Compound 97A, 3-[3-(23,29-difluoro-3,11,11-trimethyl-13-oxo-14,25-dioxa-3,4,12,20,31-pentazapentacyclo-[24.3.1.12,5.016,24.017,21]hentriaconta-1(30),2(31),4,16,18,21,23,26,28-nonaen-6-yl)phenyl]propanoic acid] | C (a value greater than 10 °C and less than or equal to 25 °C is marked “C”) | B (a value between 3 and 6 is marked “B”)
10 | Cn1nc2nc1-c1cc(ccc1F)Oc1c(F)cc3[nH]ccc3c1COC(=O)NC(C)(C)CCCCC2c1cccc(CCC(=O)O)c1 (single isomer, unassigned) [Compound 97B, 3-[3-(23,29-difluoro-3,11,11-trimethyl-13-oxo-14,25-dioxa-3,4,12,20,31-pentazapentacyclo-[24.3.1.12,5.016,24.017,21]hentriaconta-1(30),2(31),4,16,18,21,23,26,28-nonaen-6-yl)phenyl]propanoic acid] | C (a value greater than 10 °C and less than or equal to 25 °C is marked “C”) | B (a value between 3 and 6 is marked “B”)
11 | Cn1nc2nc1-c1cc(ccc1F)Oc1c(F)cc3[nH]ccc3c1CCNC(=O)OCC(C)(C)CC[C@@]2(C)c1cccc(CCC(=O)O)c1 (single isomer, unassigned) [Compound 98A] | C (a value greater than 10 °C and less than or equal to 25 °C is marked “C”) | C (a value between 6 and 20 is marked “C”)
12 | Cn1nc2nc1-c1cc(ccc1F)Oc1c(F)cc3[nH]ccc3c1CCNC(=O)OCC(C)(C)CC[C@@]2(C)c1cccc(CCC(=O)O)c1 (single isomer, unassigned) [Compound 98B] | A (an ΔTagg value less than or equal to 5 °C is marked “A”) | B (a value between 3 and 6 is marked “B”)
13 | Cn1nc2nc1-c1cc(ccc1F)Oc1c(F)cc3[nH]ccc3c1COC(=O)NC(C)(C)CCCC2(C)c1cccc(CCC(=O)O)c1 (single isomer, unassigned) [Compound 99A, 3-[3-(22,28-difluoro-3,6,10,10-tetramethyl-12-oxo-13,24-dioxa-3,4,11,19,30-pentazapentacyclo-[23.3.1.12,5.015,23.016,20]-triaconta-1(29),2(30),4,15,17,20,22,25,27-nonaen-6-yl)phenyl]propanoic acid] | C (a value greater than 10 °C and less than or equal to 25 °C is marked “C”) | B (a value between 3 and 6 is marked “B”)
14 | Cn1nc2nc1-c1cc(ccc1F)Oc1c(F)cc3[nH]ccc3c1COC(=O)NC(C)(C)CCCC2(C)c1cccc(CCC(=O)O)c1 (single isomer, unassigned) [Compound 99B, 3-[3-(22,28-difluoro-3,6,10,10-tetramethyl-12-oxo-13,24-dioxa-3,4,11,19,30-pentazapentacyclo-[23.3.1.12,5.015,23.016,20]-triaconta-1(29),2(30),4,15,17,20,22,25,27-nonaen-6-yl)phenyl]propanoic acid] | A (an ΔTagg value less than or equal to 5 °C is marked “A”) | B (a value between 3 and 6 is marked “B”)
15 | Cn1nc2nc1-c1cc(ccc1F)Oc1c(F)cc3[nH]ccc3c1COC(=O)NC(C)(C)COCCC2(C)c1cccc(CCC(=O)O)c1 (single isomer, unassigned) [Compound 100A, 3-[3-(23,29-difluoro-3,6,11,11-tetramethyl-13-oxo-9,14,25-trioxa-3,4,12,20,31-pentazapentacyclo-[24.3.1.12,5.016,24.017,21]hentriaconta-1(30),2(31),4,16,18,21,23,26,28-nonaen-6-yl)phenyl]propanoic acid] | C (a value greater than 10 °C and less than or equal to 25 °C is marked “C”) | C (a value between 6 and 20 is marked “C”)
